Reference: paper PMC4666608, “Metabolic Profiling of Chicken Embryos Exposed to Perfluorooctanoic Acid (PFOA) and Agonists to Peroxisome Proliferator-Activated Receptors” (PLoS ONE, 2015)
Marks after values point to notes of the source that are not given here.

Tested on: chicken embryos
Assay: Metabolic profiling of allantoic fluid (GC-MS, LC-MS, OPLS-DA)
Assay type: in vivo, Gallus gallus domesticus
Details: for Mean concentration relative to control, feature Win004_C08 / Mean concentration relative to control, feature Win005_C07 / Mean concentration relative to control, feature Win008_C06 / Mean concentration relative to control, feature Win022_C01 / Mean concentration relative to control, feature Win023_C06 / Mean concentration relative to control, feature win006_C01 / Mean concentration relative to control, feature Win008_C07 / Mean concentration relative to control, feature Win023_C03 / Mean concentration relative to control, feature Win007_C09 / Mean concentration relative to control, feature Win008_C05 / Mean concentration relative to control, feature Win018_C04 / Mean concentration relative to control, feature Win007_C03 / Mean concentration relative to control, feature Win042_C02 / Mean concentration relative to control, feature Win009_C03 / Mean concentration relative to control, feature Win008_C04 / Mean concentration relative to control, feature Win005_C03 / Mean concentration relative to control, feature Win013_C05: GC; for Mean concentration relative to control, feature Win008_C07: tentative 1-Aminocyclopropanecarboxylic acid; for Mean concentration relative to control, feature Win023_C03: tentative 2-Oxoglutaric acid; for Mean concentration relative to control, feature Win007_C09 / Mean concentration relative to control, feature Win008_C05: tentative 2-Oxovaleric acid; for Mean concentration relative to control, feature Win018_C04: tentative 3-Amino-2-piperidone; for Mean concentration relative to control, feature Win007_C03: tentative 3-Hydroxybutanoic acid; for Mean concentration relative to control, feature Win042_C02: tentative Cystathionine; for Mean concentration relative to control, feature Win009_C03: tentative Ketoleucine; for Mean concentration relative to control, feature Win008_C04: tentative Malonic acid; for Mean concentration relative to control, feature Win005_C03: tentative Oxalic acid; for Mean concentration relative to control, feature Win013_C05: tentative Succinic acid
Experimental: Controls were injected with 20 μL vehicle only (DMSO).
Plasma was collected and stored at -70°C.
Metabolites in allantoic fluid and blood plasma were analyzed using gas chromatography-mass spectrometry (GC-MS) and liquid chromatography-mass spectrometry (LC-MS) as described in S1 Methods. Prior to GC-MS and LC-MS analysis, allantoic fluid (100 μL) and blood plasma (50 μL) were extracted. To each sample, 900 μL (allantoic fluid) or 450 μL (blood plasma) of extraction buffer (90/10 v/v methanol:water) including all internal standards were added. Standards for GC-MS were proline, succinic acid, glutamic acid, salicylic acid, alpha-ketoglutarate, putrescine, myristic acid, hexadecanoic acid, cholesterol, and sucrose. Standards for LC-MS were Val-Tyr-Val, Leu-enkephalin, sulfadimethoxine and reserpine. Samples were homogenized by shaking in a bead mill at a frequency of 30 Hz for 3 minutes and proteins were precipitated at +4°C on ice. The samples were centrifuged at +4°C, 14000 rpm, for 10 min. Then, 200 μL supernatant was transferred to a GC microvial and 200 μL was transferred to an LC microvial, and solvents were evaporated. Samples from the four replicate experiments were analyzed using in chronological order and within each replicate experiment the run order of the individual samples was randomized.
Multivariate statistical analyses of metabolite profiles were performed using the software package SIMCA-P version 13.0 (Umetrics, Umeå, Sweden). Data was centered and scaled to variance 1 (UV scaling) prior to modelling. To reduce unintended systematic variation caused by sample processing and instrument drift, GC-MS and LC-MS metabolite amounts (expressed as the area under the chromatographic peak) were normalized by Orthogonal Partial Least Squares analysis (O2PLS) prior to multivariate data analysis. O2PLS finds common (predictive) and unique (orthogonal) variation in two data matrices. If applied to find the common variation between the data matrix containing the measured metabolite concentrations and a matrix containing only the internal standards, the only common (predictive) variation expected is due to the unintended systematic variation. By deleting the contribution of the predictive latent variables, that variation can be removed from the data. Models obtained after this normalization contain in general less latent variables, and this simplification helps when deciding on the number of latent variables to be used. Following normalization, GC-MS and LC-MS data were analyzed together. Initially, a global Principal Component Analysis (PCA) was performed to get an overview of groups and trends and to identify outliers. Projections to latent structures by means of Orthogonal Partial Least Squares Discriminant Analysis (OPLS-DA) was used to model the relationship between the X-matrix (metabolite concentrations) and the Y matrix (class, i.e. exposure group or sex), and to find x-variables that were related to class belonging. OPLS-DA is a supervised prediction and regression method that rotates the projection plane to find the maximum covariance between the data and the class assignment. All groups were first analyzed together in a 5-class OPLS-DA and then each exposure group was analyzed against the control group in a 2-class OPLS-DA. Sex differences were analyzed both using the whole data set and in each group separately using 2-class OPLS-DA, with females and males as the two classes. Only variables with 80% or more nonzero values were included in the statistical models. […] The validity of each model was also checked using CV-ANOVA (ANOVA of the cross-validated residuals). A significance level of p < 0.05 was used. For each model, R ^2 X, R ^2 Y and Q ^2 values were calculated, where R ^2 X is a measure of the fraction of x variation modeled in the extracted latent variables, R ^2 Y is a measure of the fraction of y variation modeled and Q ^2 is an estimate of the predictive ability of the model and is calculated by cross-validation. […]

O=C(O)C(F)(F)C(F)(F)C(F)(F)C(F)(F)C(F)(F)C(F)(F)C(F)(F)F [PFOA, perfluorooctanoic acid]
0.8*: Mean concentration relative to control, feature 245.1563@2.2907295 (LC, PFOA 50 μg/egg) | Mean concentration relative to control, feature 305.1682@5.353517 (LC, PFOA 50 μg/egg)
1.2: Mean concentration relative to control, feature Win008_C06 (PFOA 250 μg/egg) | Mean concentration relative to control, feature 134.0239@1.1350567 (LC, PFOA 50 μg/egg)
0.9: Mean concentration relative to control, feature Win009_C03 (PFOA 50 μg/egg) | Mean concentration relative to control, feature Win005_C03 (PFOA 50 μg/egg) | Mean concentration relative to control, feature Win005_C03 (PFOA 250 μg/egg) | Mean concentration relative to control, feature 178.0428@1.7582192 (LC, PFOA 50 μg/egg) | Mean concentration relative to control, feature 189.1159@1.9209185 (LC, PFOA 50 μg/egg) | Mean concentration relative to control, feature 241.0551@2.3510706 (LC, PFOA 50 μg/egg) | Mean concentration relative to control, feature 325.1114@2.1190624 (LC, PFOA 50 μg/egg) | Mean concentration relative to control, feature 325.1115@2.3554378 (LC, PFOA 50 μg/egg) | Mean concentration relative to control, feature 333.1335@2.8639288 (LC, PFOA 50 μg/egg) | Mean concentration relative to control, feature 333.2005@6.5291867 (LC, PFOA 50 μg/egg) | Mean concentration relative to control, feature 337.1651@1.8737898 (LC, PFOA 50 μg/egg) | Mean concentration relative to control, feature 344.1424@2.348947 (LC, PFOA 50 μg/egg) | Mean concentration relative to control, feature 349.1651@2.4087605 (LC, PFOA 50 μg/egg) | Mean concentration relative to control, feature 357.1997@6.9691257 (LC, PFOA 50 μg/egg) | Mean concentration relative to control, feature 375.1819@3.672254 (LC, PFOA 50 μg/egg)
1.3: Mean concentration relative to control, feature Win042_C02 (PFOA 250 μg/egg)
0.6*: Mean concentration relative to control, feature 176.0952@1.3890611 (LC, PFOA 50 μg/egg)
1.0: Mean concentration relative to control, feature Win004_C08 (PFOA 50 μg/egg) | Mean concentration relative to control, feature Win005_C07 (PFOA 50 μg/egg) | Mean concentration relative to control, feature Win008_C06 (PFOA 50 μg/egg) | Mean concentration relative to control, feature Win022_C01 (PFOA 50 μg/egg) | Mean concentration relative to control, feature win006_C01 (PFOA 50 μg/egg) | Mean concentration relative to control, feature Win023_C03 (PFOA 50 μg/egg) | Mean concentration relative to control, feature Win007_C09 (PFOA 50 μg/egg) | Mean concentration relative to control, feature Win008_C05 (PFOA 50 μg/egg) | Mean concentration relative to control, feature Win018_C04 (PFOA 50 μg/egg) | Mean concentration relative to control, feature Win007_C03 (PFOA 50 μg/egg) | Mean concentration relative to control, feature Win013_C05 (PFOA 50 μg/egg) | Mean concentration relative to control, feature Win004_C08 (PFOA 250 μg/egg) | Mean concentration relative to control, feature Win005_C07 (PFOA 250 μg/egg) | Mean concentration relative to control, feature win006_C01 (PFOA 250 μg/egg) | Mean concentration relative to control, feature Win008_C07 (PFOA 250 μg/egg) | Mean concentration relative to control, feature Win007_C09 (PFOA 250 μg/egg) | Mean concentration relative to control, feature Win008_C05 (PFOA 250 μg/egg) | Mean concentration relative to control, feature Win007_C03 (PFOA 250 μg/egg) | Mean concentration relative to control, feature Win009_C03 (PFOA 250 μg/egg) | Mean concentration relative to control, feature 145.0538@3.072527 (LC, PFOA 50 μg/egg) | Mean concentration relative to control, feature 147.0328@3.0722888 (LC, PFOA 50 μg/egg) | Mean concentration relative to control, feature 160.0323@1.1950632 (LC, PFOA 50 μg/egg) | Mean concentration relative to control, feature 173.0488@3.0734746 (LC, PFOA 50 μg/egg) | Mean concentration relative to control, feature 180.0048@4.421465 (LC, PFOA 50 μg/egg) | Mean concentration relative to control, feature 197.0639@2.1181405 (LC, PFOA 50 μg/egg) | Mean concentration relative to control, feature 201.012@3.046474 (LC, PFOA 50 μg/egg) | Mean concentration relative to control, feature 202.0429@2.9548414 (LC, PFOA 50 μg/egg) | Mean concentration relative to control, feature 205.0533@4.421879 (LC, PFOA 50 μg/egg) | Mean concentration relative to control, feature 226.0107@4.421457 (LC, PFOA 50 μg/egg) | Mean concentration relative to control, feature 236.0816@3.0720985 (LC, PFOA 50 μg/egg) | Mean concentration relative to control, feature 243.1118@2.1537287 (LC, PFOA 50 μg/egg) | Mean concentration relative to control, feature 244.9972@4.421603 (LC, PFOA 50 μg/egg) | Mean concentration relative to control, feature 250.0981@3.072492 (LC, PFOA 50 μg/egg) | Mean concentration relative to control, feature 262.0978@2.7961144 (LC, PFOA 50 μg/egg) | Mean concentration relative to control, feature 263.0855@2.2847009 (LC, PFOA 50 μg/egg) | Mean concentration relative to control, feature 278.0928@3.0723689 (LC, PFOA 50 μg/egg) | Mean concentration relative to control, feature 279.1248@2.796395 (LC, PFOA 50 μg/egg) | Mean concentration relative to control, feature 280.1425@2.730277 (LC, PFOA 50 μg/egg) | Mean concentration relative to control, feature 289.1012@3.249983 (LC, PFOA 50 μg/egg) | Mean concentration relative to control, feature 294.1242@2.3692534 (LC, PFOA 50 μg/egg) | Mean concentration relative to control, feature 302.0508@3.0722616 (LC, PFOA 50 μg/egg) | Mean concentration relative to control, feature 308.073@4.4211636 (LC, PFOA 50 μg/egg) | Mean concentration relative to control, feature 310.1181@1.5090439 (LC, PFOA 50 μg/egg) | Mean concentration relative to control, feature 316.0389@3.0725708 (LC, PFOA 50 μg/egg) | Mean concentration relative to control, feature 320.0626@3.0729218 (LC, PFOA 50 μg/egg) | Mean concentration relative to control, feature 335.1866@4.508565 (LC, PFOA 50 μg/egg) | Mean concentration relative to control, feature 348.0553@3.0730357 (LC, PFOA 50 μg/egg) | Mean concentration relative to control, feature 371.1513@3.0009465 (LC, PFOA 50 μg/egg) | Mean concentration relative to control, feature 414.1482@2.118972 (LC, PFOA 50 μg/egg)
0.8: Mean concentration relative to control, feature Win023_C06 (PFOA 50 μg/egg) | Mean concentration relative to control, feature 270.0441@1.1407775 (LC, PFOA 50 μg/egg) | Mean concentration relative to control, feature 305.1684@5.2955093 (LC, PFOA 50 μg/egg) | Mean concentration relative to control, feature 394.167@3.9552917 (LC, PFOA 50 μg/egg)
1.1: Mean concentration relative to control, feature Win008_C07 (PFOA 50 μg/egg) | Mean concentration relative to control, feature Win042_C02 (PFOA 50 μg/egg) | Mean concentration relative to control, feature Win008_C04 (PFOA 50 μg/egg) | Mean concentration relative to control, feature Win022_C01 (PFOA 250 μg/egg) | Mean concentration relative to control, feature Win023_C06 (PFOA 250 μg/egg) | Mean concentration relative to control, feature Win023_C03 (PFOA 250 μg/egg) | Mean concentration relative to control, feature Win018_C04 (PFOA 250 μg/egg) | Mean concentration relative to control, feature Win008_C04 (PFOA 250 μg/egg) | Mean concentration relative to control, feature Win013_C05 (PFOA 250 μg/egg) | Mean concentration relative to control, feature 214.016@2.1190732 (LC, PFOA 50 μg/egg) | Mean concentration relative to control, feature 288.1166@2.9551322 (LC, PFOA 50 μg/egg) | Mean concentration relative to control, feature 289.173@7.5030584 (LC, PFOA 50 μg/egg)
